Measurements reported in US20230219978A1, “COMPOUND HAVING MACROCYCLIC STRUCTURE AND USE THEREOF” (SCINNOHUB PHARMACEUTICAL CO., LTD, priority 2020, published 2023).

Experiments:
Assay type in all cases: biochemical
TRKa = target: T1, TRKa (Homo sapiens, UniProt P04629); assay: In vitro kinase activity assay (mobility shift assay), TRKa; details: ATP 47.8 μM, reaction time 30 min
T1 construct: purchased Carna 08-186
Description: (§1) The IC50 (half inhibitory concentration) values of the compounds were used as an indicator to evaluate the inhibitory effect of the compound on RET wild-type, RET mutant, TRKa, SRC, BTK and/or mutated BTK kinase.
(§2) Using the method of Mobility shift assay, the compounds were tested for inhibitory activity against the following kinases: RET wild type, RET mutant, TRKa, SRC, BTK and/or mutated BTK. The initial concentration of the test compound was 1000 nM, 3-fold dilution, 10 concentrations, detected in a well for each concentration.
(§3) 20 mM hydroxyethylpiperazineethanesulfonic acid (Hepes) (pH 7.5) buffer, 10 mM MgCl2, 1 mM ethylene glycol bis(aminoethyl ether)tetraacetic acid (EGTA), 0.02% polyoxyethylene lauryl ether (Brij35), 0.02 mg/ml […] (BSA), 0.1 mM Na3VO4, 2 mM dithiothreitol (DTT), 1% DMSO.
(§4) The test compounds were dissolved in 100% dimethyl sulfoxide (DMSO) system, and prepared as 10 mM for use, and stored in a nitrogen cabinet away from light.
(§5) • (1) Preparing 1× kinase reaction buffer. • (2) Preparation of compound concentration gradient: the initial concentration of the compounds was 1000 nM, which was diluted as 100-fold final concentration of solution in 100% dimethyl sulfoxide (DMSO) in a 384-well plate. The compound was accurately 3-fold diluted with the kinase buffer solution, 10 concentrations in total, and the final concentration was 0.0508 nM. The 100-fold final concentration of solution in 100% dimethyl sulfoxide (DMSO) was obtained by dilution in 384 source plate. The liquid separator Echo 550 was used to transfer 250 nl of 100-fold final concentration of compound to the target 384 well plate. 250 nl of DMSO was added to the positive and negative control wells. • (3) 2.5-fold final concentration of kinase solution was prepared by the 1× kinase buffer. • (4) 10 4, of 2.5-fold final concentration of kinase solution was added to the compound well and the positive control well, respectively; 10 4, of 1× kinase buffer was added to the negative control well. • (5) After centrifuging at 1000 rpm for 30 second, the reaction plate was shaken and mixed, followed by incubation at room temperature for 10 min. • (6) a mixed solution of 25/15-fold final concentration of adenosine triphosphate (ATP) and kinase substrate was prepared by 1× kinase buffer. • (7) The mixed solution (15 μL) of 25/15-fold final concentration of adenosine triphosphate (ATP) and substrate was added to initiate the reaction. • (8) 384-well plate was centrifuged at 1000 rpm for 30 second, shaken and mixed well, and then incubated at room temperature for 30-240 min. • (9) After stopping the kinase reaction, the plate was centrifugated at 1000 rpm for 30 second, shaken and mixed well. • (10)The conversion rate was read with Caliper EZ Reader.
(§6) wherein Conversion%_sample is the conversion rate reading of the sample; Conversion%_min: the mean value of negative control wells, representing the conversion rate reading of wells without enzymes; Conversion%_max: the mean value of positive control wells, representing the conversion rate reading of wells without compound inhibition.
(§7) The log value of concentration was taken as the X axis, and the percentage inhibition rate was taken as the Y axis. Graphpad 6.0 analysis software was used to fit the dose-response curve, so as to obtain the IC50 value of each compound on the enzyme activity

RET wt = target: T2, RET wt (Homo sapiens, UniProt P07949); assay: In vitro kinase activity assay (mobility shift assay), RET wild type; details: ATP 16 μM, reaction time 60 min
T2 construct: purchased Carna 08-159
T2 sequence (P07949 29-1114): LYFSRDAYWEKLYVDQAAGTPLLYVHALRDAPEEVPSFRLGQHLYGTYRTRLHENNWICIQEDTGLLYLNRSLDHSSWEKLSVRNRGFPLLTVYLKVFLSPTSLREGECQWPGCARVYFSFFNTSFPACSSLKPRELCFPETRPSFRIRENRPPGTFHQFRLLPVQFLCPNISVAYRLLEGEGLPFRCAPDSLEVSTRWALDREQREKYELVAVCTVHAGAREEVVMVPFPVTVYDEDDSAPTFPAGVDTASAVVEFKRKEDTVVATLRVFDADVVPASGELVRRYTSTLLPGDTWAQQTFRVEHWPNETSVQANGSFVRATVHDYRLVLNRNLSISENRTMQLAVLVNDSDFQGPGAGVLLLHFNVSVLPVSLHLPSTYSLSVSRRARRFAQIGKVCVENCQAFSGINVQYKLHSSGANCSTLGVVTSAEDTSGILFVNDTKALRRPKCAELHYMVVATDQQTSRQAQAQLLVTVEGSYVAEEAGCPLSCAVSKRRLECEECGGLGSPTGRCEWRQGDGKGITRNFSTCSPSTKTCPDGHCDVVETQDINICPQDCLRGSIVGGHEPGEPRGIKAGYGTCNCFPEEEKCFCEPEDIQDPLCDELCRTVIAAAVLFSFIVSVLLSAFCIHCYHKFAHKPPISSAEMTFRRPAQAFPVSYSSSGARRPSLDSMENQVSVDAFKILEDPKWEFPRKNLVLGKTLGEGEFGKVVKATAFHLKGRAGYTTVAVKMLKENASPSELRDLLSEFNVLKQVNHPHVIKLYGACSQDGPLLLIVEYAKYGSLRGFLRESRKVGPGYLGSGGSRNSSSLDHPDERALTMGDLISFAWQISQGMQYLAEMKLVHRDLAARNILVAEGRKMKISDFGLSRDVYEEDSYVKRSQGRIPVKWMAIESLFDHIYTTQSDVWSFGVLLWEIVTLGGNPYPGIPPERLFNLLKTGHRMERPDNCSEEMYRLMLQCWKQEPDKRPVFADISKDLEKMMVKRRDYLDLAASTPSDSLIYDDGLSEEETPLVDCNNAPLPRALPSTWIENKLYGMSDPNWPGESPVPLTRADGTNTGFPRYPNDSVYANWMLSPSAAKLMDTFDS
Description: as §1, §2, §3, §4, §5, §6, §7

BTK = target: T3, BTK (Homo sapiens, UniProt Q06187); assay: In vitro kinase activity assay (mobility shift assay), BTK; details: ATP 71 μM, reaction time 30 min
T3 construct: purchased Carna 08-180
T3 sequence (Q06187 whole entry): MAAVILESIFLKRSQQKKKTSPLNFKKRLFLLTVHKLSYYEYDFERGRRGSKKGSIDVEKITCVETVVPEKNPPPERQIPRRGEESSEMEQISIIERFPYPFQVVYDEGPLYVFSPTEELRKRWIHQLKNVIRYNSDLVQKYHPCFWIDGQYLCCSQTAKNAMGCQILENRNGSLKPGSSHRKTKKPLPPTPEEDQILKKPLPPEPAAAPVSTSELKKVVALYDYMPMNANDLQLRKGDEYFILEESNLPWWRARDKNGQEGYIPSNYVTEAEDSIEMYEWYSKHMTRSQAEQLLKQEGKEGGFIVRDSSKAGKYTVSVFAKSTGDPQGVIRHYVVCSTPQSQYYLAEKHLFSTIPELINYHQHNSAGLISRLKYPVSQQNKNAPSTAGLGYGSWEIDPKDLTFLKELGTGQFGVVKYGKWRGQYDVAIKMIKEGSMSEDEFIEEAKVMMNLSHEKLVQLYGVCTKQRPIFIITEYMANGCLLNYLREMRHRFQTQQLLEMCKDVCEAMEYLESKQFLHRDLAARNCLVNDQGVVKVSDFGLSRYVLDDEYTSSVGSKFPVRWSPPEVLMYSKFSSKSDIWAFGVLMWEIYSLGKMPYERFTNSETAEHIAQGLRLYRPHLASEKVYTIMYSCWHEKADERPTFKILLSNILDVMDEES
Description: as §1, §2, §3, §4, §5, §6, §7

RET G810R = target: T4, RET G810R (Homo sapiens, UniProt P07949, G810R); assay: In vitro kinase activity assay (mobility shift assay), RET G810R; details: ATP 201 μM, reaction time 4 h
T4 construct: purchased Proqinase 1724-0000-1
T4 sequence (P07949 29-1114 G810R): as the sequence (P07949 29-1114) above, with G782R counted along it
Description: as §1, §2, §3, §4, §5, §6, §7

BTK C481S = target: T5, BTK C481S (Homo sapiens, UniProt Q06187, C481S); assay: In vitro kinase activity assay (mobility shift assay), BTK C481S; details: ATP 90 μM, reaction time 30 min
T5 construct: purchased Carna 08-547
T5 sequence (Q06187 whole entry C481S): as the sequence (Q06187 whole entry) above, with C481S counted along it
Description: as §1, §2, §3, §4, §5, §6, §7

T1 sequence (P04629 33-796): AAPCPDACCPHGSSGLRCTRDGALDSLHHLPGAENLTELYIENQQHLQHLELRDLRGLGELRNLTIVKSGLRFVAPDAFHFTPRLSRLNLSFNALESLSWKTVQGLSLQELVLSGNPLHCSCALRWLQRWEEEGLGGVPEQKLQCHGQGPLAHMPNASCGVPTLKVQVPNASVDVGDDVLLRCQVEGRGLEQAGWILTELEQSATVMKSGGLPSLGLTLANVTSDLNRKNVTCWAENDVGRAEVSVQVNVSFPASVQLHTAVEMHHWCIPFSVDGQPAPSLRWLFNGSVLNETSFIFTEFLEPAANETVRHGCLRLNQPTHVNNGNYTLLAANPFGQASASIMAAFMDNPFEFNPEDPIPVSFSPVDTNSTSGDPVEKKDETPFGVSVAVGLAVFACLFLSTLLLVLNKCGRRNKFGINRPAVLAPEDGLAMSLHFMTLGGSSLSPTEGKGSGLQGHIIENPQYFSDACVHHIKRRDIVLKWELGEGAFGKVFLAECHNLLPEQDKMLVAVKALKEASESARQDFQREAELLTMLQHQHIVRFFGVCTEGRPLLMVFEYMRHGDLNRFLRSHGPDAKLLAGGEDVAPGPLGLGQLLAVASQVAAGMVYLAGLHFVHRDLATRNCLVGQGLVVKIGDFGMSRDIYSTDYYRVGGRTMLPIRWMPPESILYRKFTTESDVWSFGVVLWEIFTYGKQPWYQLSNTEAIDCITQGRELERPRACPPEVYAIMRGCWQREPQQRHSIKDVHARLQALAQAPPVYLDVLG

IC50 (TRKa)	IC50 (RET wt)	IC50 (BTK)	IC50 (RET G810R)	IC50 (BTK C481S)	Compound
1850 nM	10 nM				C[C@H]1CNC(=O)c2cnn3cc(-c4cccc(F)c4)c(nc23)NCc2cc(F)cnc2O1 [Compound 7, (S, 1^3E, 1^4E)-1^6-(3-fluorophenyl)-4^5-fluoro-6-methyl-5-oxa-2,8-diaza-1(5,3)-pyrazolo[1,5-a]pyrimidina-4(3,2)-pyridinacyclononaphan-9-one]
1240 nM	13 nM				C[C@H]1CNC(=O)c2cnn3cc(-c4ccc(F)cc4)c(nc23)NCc2cc(F)cnc2O1 [Compound 8, (S, 1^3E, 1^4E)-1^6-(4-fluorophenyl)-4^5-fluoro-6-methyl-5-oxa-2,8-diaza-1(5,3)-pyrazolo[1,5-a]pyrimidina-4(3,2)-pyridinacyclononaphan-9-one]
925 nM	15 nM				Cc1ccc(-c2cn3ncc4c3nc2NCc2cc(F)cnc2O[C@@H](C)CNC4=O)cc1 [Compound 11, (S, 1^3E, 1^4E)-1^6-(4-methylphenyl)-4^5-fluoro-6-methyl-5-oxa-2,8-diaza-1(5,3)-pyrazolo[1,5-a]pyrimidina-4(3,2)-pyridinacyclononaphan-9-one]
> 10000 nM	36 nM				Cc1cccc(-c2cn3ncc4c3nc2NCc2cc(F)cnc2O[C@@H](C)CNC4=O)c1 [Compound 12, (S, 1^3E, 1^4E)-1^6-(3-methylphenyl)-4^5-fluoro-6-methyl-5-oxa-2,8-diaza-1(5,3)-pyrazolo[1,5-a]pyrimidina-4(3,2)-pyridinacyclononaphan-9-one]
> 10000 nM	5.3 nM				Cc1ccccc1-c1cn2ncc3c2nc1NCc1cc(F)cnc1O[C@@H](C)CNC3=O [Compound 13, (S, 1^3E, 1^4E)-1^6-(2-methylphenyl)-4^5-fluoro-6-methyl-5-oxa-2,8-diaza-1(5,3)-pyrazolo[1,5-a]pyrimidina-4(3,2)-pyridinacyclononaphan-9-one]
> 10000 nM	127 nM				C[C@H]1CNC(=O)c2cnn3cc(-c4ccc(C(F)(F)F)cc4)c(nc23)NCc2cc(F)cnc2O1 [Compound 14, (S, 1^3E, 1^4E)-1^6-(4-trifluoromethylphenyl)-4^5-fluoro-6-methyl-5-oxa-2,8-diaza-1(5,3)-pyrazolo[1,5-a]pyrimidina-4(3,2)-pyridinacyclononaphan-9-one]
1370 nM	543 nM				C[C@H]1CNC(=O)c2cnn3cc(-c4ccccc4C(F)(F)F)c(nc23)NCc2cc(F)cnc2O1 [Compound 16, (S, 1^3E, 1^4E)-1^6-(2-trifluoromethylphenyl)-4^5-fluoro-6-methyl-5-oxa-2,8-diaza-1(5,3)-pyrazolo[1,5-a]pyrimidina-4(3,2)-pyridinacyclononaphan-9-one]
> 10000 nM	> 10000 nM				C[C@H]1CNC(=O)c2cnn3cc(-c4ccc(=O)n(C)c4)c(nc23)NCc2cc(F)cnc2O1 [Compound 20, (S, 1^3E, 1^4E)-4^5-fluoro-6-methyl-1^6-(1-methyl-6-oxo-1,6-dihydropyridin-3-yl)-5-oxa-2,8-diaza-1(5,3)-pyrazolo[1,5-a]pyrimidin-4(3,2)-pyridinacyclononaphan-9-one]
> 10000 nM	5.9 nM				C[C@H]1CNC(=O)c2cnn3cc(-c4ccc(Cl)cc4Cl)c(nc23)NCc2cc(F)cnc2O1 [Compound 21, (S, 1^3E, 1^4E)-1^6-(2,4-dichlorophenyl)-4^5-fluoro-6-methyl-5-oxa-2,8-diaza-1(5,3)-pyrazolo[1,5-a]pyrimidin-4(3,2)-pyridinacyclononaphan-9-one]
304 nM	21 nM				C[C@H]1CNC(=O)c2cnn3cc(-c4c(F)cccc4F)c(nc23)NCc2cc(F)cnc2O1 [Compound 22, (S, 1^3E, 1^4E)-1^6-(2,6-difluorophenyl)-4^5-fluoro-6-methyl-5-oxa-2,8-diaza-1(5,3)-pyrazolo[1,5-a]pyrimidin-4(3,2)-pyridinacyclononaphan-9-one]

Continued, molecule first:

Compound	IC50 (TRKa)	IC50 (RET wt)	IC50 (BTK)	IC50 (RET G810R)	IC50 (BTK C481S)
C[C@H]1CNC(=O)c2cnn3cc(C4CC4)c(nc23)NCc2cc(F)cnc2O1 [Compound 23, (S, 1^3E, 1^4E)-1^6-cyclopropyl-4^5-fluoro-6-methyl-5-oxa-2,8-diaza-1(5,3)-pyrazolo[1,5-a]pyrimidin-4(3,2)-pyridinacyclononaphan-9-one]	> 10000 nM	448 nM			
C[C@H]1CNC(=O)c2cnn3cc(Nc4ccccc4)c(nc23)NCc2cc(F)cnc2O1 [Compound 25, (S, 1^3E, 1^4E)-4^5-fluoro-6-methyl-1^6-phenylamino-5-oxa-2,8-diaza-1(5,3)-pyrazolo[1,5-a]pyrimidina-4(3,2)-pyridinacyclononaphan-9-one]	> 10000 nM	366 nM			
C[C@H]1CNC(=O)c2cnn3cc(-c4ccccc4)c(nc23)N[C@H](C)c2cc(F)cnc2O1 [Compound 26, (1^3E, 1^4E, 3R, 6S)-4^5-fluoro-3,6-dimethyl-1^6-phenyl-5-oxa-2,8-diaza-1(5,3)-pyrazolo[1,5-a]pyrimidin-4(3,2)-pyridinacyclononaphan-9-one]	> 10000 nM	9 nM			
O=C1N[C@H]2C[C@H](C2)Oc2ncc(F)cc2CNc2nc3c1cnn3cc2-c1ccccc1 [Compound 29]	> 10000 nM	20 nM			
CC(C)OC(=O)Nc1ccc(-c2cn3ncc4c3nc2NCc2cc(F)cnc2O[C@@H](C)CNC4=O)c(Cl)c1 [Compound 45, iso-propyl 3-chloro-4-((S, 1^3E, 1^4E)-4^5-fluoro-6-methyl-9-oxo-5-oxa-aza-1(5,3)-pyrazolo[1,5-a]pyrimidin-4(3,2)-pyridinacyclononaphan-1^6-yl)phenyl) carbamate]		3.9 nM	346 nM	70 nM	42.4 nM
C[C@H]1CNC(=O)c2cnn3c(N)c(-c4ccc(Cl)cc4)c(nc23)NCc2cc(F)cnc2O1 [Compound 50, (S, 1^3E, 1^4E)-1^7-amino-1^6-(4-chlorophenyl)-4^5-fluoro-6-methyl-5-oxa-2,8-diaza-1(5,3)-pyrazolino[1,5-a]pyrimidin-4(3,2)-pyridinacyclononaphan-9-one]		0.83 nM	1.8 nM		1.48 nM
C[C@H]1CNC(=O)c2cnn3c(N)c(-c4ccc(F)cc4)c(nc23)NCc2cc(F)cnc2O1 [Compound 51, (S, 1^3E, 1^4E)-1^7-amino-1^6-(4-fluorophenyl)-4^5-fluoro-6-methyl-5-oxa-2,8-diaza-1(5,3)-pyrazolino[1,5-a]pyrimidin4(3,2)-pyridinacyclononaphan-9-one]		1.6 nM	1 nM		1.9 nM
C[C@H]1CNC(=O)c2cnn3c(N)c(-c4ccc5[nH]ccc5c4)c(nc23)NCc2cc(F)cnc2O1 [Compound 53, (S, 1^3E, 1^4E)-1^7-amino-4^5-fluoro-1^6-(1H-indo1-5-yl)-6-methyl-5-oxo-2,8-diaza-1(5,3)-pyrazolo[1,5-a]pyrimidin-4(3,2)-pyridinacyclononaphan-9-one]		> 1000 nM	> 1000 nM	> 1000 nM	> 1000 nM
Nc1c(-c2ccccc2)c2nc3c(cnn13)C(=O)NCCOc1ncc(F)cc1CN2 [Example 65, (1^3E, 1^4E)-1^7-amino-4^5-fluoro-1^6-phenyl-5-oxa-2,8-diaza-1(5,3)-pyrazolino[1,5-a]pyrimidin-4(3,2)-pyridinacyclononaphan-9-one]		2.1 nM	3.5 nM		6.6 nM
